According to US20100008976A1, “Medical Use of N-Phenylpropenoyl-Amino Acid Derivatives and Related Compounds” (Westfallsche Wilheims Universitat Munster, priority 2006, published 2010):

Tests used:
[1] = system: human liver cells (HEPG2); assay: MTT cell metabolic (mitochondrial) activity in HepG2 liver cells; assay type: cell-based; settings: for mitochondrial activity: HepG2, 10 and 100 μg/ml, incubation for 48 hours, MTT; for energy status: HepG2, shortened incubation time of 24 hours
Experimental: (§1) The HepG2 cell line, clone H20, was received from Prof. Mersch-Sundermann, Giessen University, and cultured as described in [2]. The cells were cultured in low glucose (1 g/l) Dulbecco's modified Eagle's medium (DMEM) with L-glutamine and 25 mM Hepes, which was mixed with 15% (v/v) heat-inactivated fetal calf serum (FCS) and gentamycin (30 μg/ml), in a moist atmosphere at 37+/−0.5° C., 5% CO2. The cells were trypsinized, washed with PBS (pH 7.4), gently centrifuged and then a cell suspension in a cell medium was prepared by forcing the sediment through a needle. The medium was changed every three to five days. The compounds Nos. 5 and 8 to be tested were dissolved in a concentration of 1 mg/ml in HepG2 medium, to which the serum-free supplement SerEx was added instead of FCS, and filtered through a 0.2 μm cellulose acetate filter.
The cells were seeded in 96-well microtiter plates (1×10^4 cells/well). […] The cell metabolic activity was quantified as 2.5 mg/ml MTT in accordance with. The extracytosolic LDH [4] was quantified with a cytotoxicity assay.
FIG. 2: Influence of compounds No. 5 and No. 8 (10 and 100 μg/ml) on the mitochondrial activity of human liver cells (HEPG2) after incubation for 48 hours.
The measurement plotted in FIG. 2 is the relative mitochondrial dehydrogenase activity (untreated control=100%). The bars represent the means of a representative experiment with n=10.

[2] = system: HepG2 cell line; assay: Extracytosolic LDH cytotoxicity assay in HepG2 cells; assay type: cell-based, human; settings: HepG2, 100 and 10 μg/ml
Experimental: as §1
The cells were seeded in 96-well microtiter plates (1×10^4 cells/well). After 24 h, the medium was removed and the cells were exposed to the compounds to be tested, in concentrations of 100 and 10 μg/ml, for 48 h. The cell metabolic activity was quantified as 2.5 mg/ml MTT in accordance with. The extracytosolic LDH [4] was quantified with a cytotoxicity assay.

[3] = system: Human primary keratinocytes (NHK); assay: MTT mitochondrial activity in human keratinocytes; assay type: cell-based; settings: 10 μg/ml
Experimental: (§2) Human primary keratinocytes (NHK) were isolated from human skin obtained by surgical resection of Caucasian patients. In vitro tests relating to the mitochondrial activity, the BrdU incorporation and for necrotic effects by means of an LDH assay were carried out.
(§3) The investigations were carried out with cells of the 2nd to 6th passage. Both compound No. 5 and compound No. 8 increased in a concentration of 10 μg/ml both the mitochondrial activity and the proliferation (FIG. 3).
(§4) FIG. 3: Influence of compounds No. 5 and No. 8 (10 μg/ml) on the mitochondrial activity (A) and the mitotic proliferation (B) of HaCaT keratinocytes after incubation for 60 hours.
(§5) The measurement plotted in FIG. 3A is the relative mitochondrial dehydrogenase activity (untreated control=100%) and in FIG. 3 b is the relative mitochondrial proliferation rate (untreated control=100%).
(§6) The mitochondrial activity was investigated using the MTT assay, and the proliferation by BrdU-incorporation ELISA. The bars represent the standard errors with n=10. Negative control: untreated cells, positive control: fibroblast growth factor FGF.

[4] = system: Human primary keratinocytes (NHK); assay: BrdU incorporation proliferation in human keratinocytes; assay type: cell-based; settings: 10 μg/ml
Experimental: as §2, §3, §4, §5, §6

[5] = system: Human primary keratinocytes (NHK); assay: LDH assay for necrotic effects in human keratinocytes; assay type: cell-based
Experimental: as §2, §3

[6] = system: Helicobacter pylori; assay: Adhesion of FITC-labeled Helicobacter pylori to human gastric mucosa; assay type: cell-based; settings: for adhesion score / fluorescence intensity: FITC-labeled H. pylori on human gastric mucosa; for adhesion score: 1 mg/ml; for antiadhesive effect on Helicobacter pylori: bacteria incubated with compound 1 mg/ml, stomach tissue; for fluorescence intensity: untreated bacteria standardized to 100%
Experimental: Adhesion tests were carried out in accordance with. This entailed FITC-labeled bacteria being incubated with the compounds to be tested (1 mg/ml). Deparaffinized pieces of stomach tissue were incubated with the bacteria. Microorganisms which adhere to the epithelium were counted under a fluorescence microscope and compared with an untreated control.
The maximum adhesion, as found for example in the untreated control groups (negative control), was assigned a score of +++++, while lower adhesions were assigned scores ++++, +++, ++, + or −, the score found for the positive control (sialyllactose, [7]) being −.
FIG. 4: Fluorescence microscopes (200×) of a representative in situ experiment with FITC-labeled H. pylorion human gastric mucosa: (A) complete adhesion (+++++) of untreated bacteria, fluorescence intensity standardized to 100% (negative control), (B) positive control (−), fluorescence intensity 10% (C) compound No. 5 (++++), fluorescence intensity 78%, (D) compound No. 8 (+) fluorescence intensity 19%.

Compound | mitochondrial activity [1] | energy status [1] | necrotic cytotoxicity (LDH) [2] | mitochondrial activity [3] | proliferation [4] | cytotoxicity [5] | adhesion score [6] | antiadhesive effect on Helicobacter pylori [6] | fluorescence intensity [6]
O=C(O)C[C@H](NC(=O)/C=C/c1ccc(O)c(O)c1)C(=O)O [Compound 8, (+)-N-[3′,4′-dihydroxy-(E)-cinnamoyl]-L-aspartic acid] | increased | significantly increased | no necrotic cytotoxicity was detectable | increased | increased | No cytotoxicity was detected | + | almost complete suppression of adhesion | 19%
sialyllactose [reference compound] |  |  |  |  |  |  | − |  | 10%
O=C(/C=C/c1ccc(O)c(O)c1)N[C@@H](Cc1c[nH]c2ccccc12)C(=O)O [Compound 5, (+)-N-[3′,4′-dihydroxy-(E)-cinnamoyl]-L-tryptophan] | increased | no effect | no necrotic cytotoxicity was detectable | increased | increased | No cytotoxicity was detected | ++++ | no effect | 78%
O=C(/C=C/c1ccc(O)c(O)c1)N[C@@H](Cc1ccc(O)c(O)c1)C(=O)O [Compound 11, (−)-N-[3′,4′-dihydroxy-(E)-cinnamoyl]-3-hydroxy-L-tyrosine] | none of the effects described |  |  | none of the effects described | none of the effects described |  |  | none of the effects described | 
